This note sets out measurements from US20220289753A1, “SHP2 INHIBITORS” (IRBM S.P.A., priority 2019, published 2022).

The structures appear in SMILES notation. Like-named read-outs stand apart in the source and are kept apart here.

The target in assay [1] is T1, SHP-2 enzyme (Met1-Leu525) (Homo sapiens, UniProt Q06124).
T1 construct: synthetized by Origene, Met1-Leu525, cat #TP750155; purchased Origene TP750155
T1 sequence (Q06124 1-525): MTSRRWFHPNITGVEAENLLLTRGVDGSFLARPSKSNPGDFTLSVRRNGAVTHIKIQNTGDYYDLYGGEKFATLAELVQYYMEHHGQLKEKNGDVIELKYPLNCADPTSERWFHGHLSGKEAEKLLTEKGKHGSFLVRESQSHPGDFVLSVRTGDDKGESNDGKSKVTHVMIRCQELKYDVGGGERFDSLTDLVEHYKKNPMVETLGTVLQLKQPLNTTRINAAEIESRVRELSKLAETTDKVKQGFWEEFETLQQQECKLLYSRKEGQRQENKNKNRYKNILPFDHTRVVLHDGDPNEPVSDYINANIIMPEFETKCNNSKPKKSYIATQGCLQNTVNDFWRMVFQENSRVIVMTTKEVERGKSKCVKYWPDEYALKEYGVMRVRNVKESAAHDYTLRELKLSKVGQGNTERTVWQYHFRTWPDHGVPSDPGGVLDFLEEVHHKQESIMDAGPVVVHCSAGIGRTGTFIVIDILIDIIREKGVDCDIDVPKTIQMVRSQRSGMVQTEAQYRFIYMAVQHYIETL
Description: SHP2 inhibition enzymatic assay (DiFMUP substrate, IRS1 peptide activation). It counts as biochemical. The settings on record: SHP2 wt; activated by 500 nM IRS1 peptide; 75 μM DiFMUP substrate. Summed up: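 SHP-2 (Met1-Leu525, 0.5 nM final) preincubated 30 min with compounds and IRS1 activating peptide in HEPES pH 7.2 buffer with NaCl, KCl, EDTA, tween-20, 5 mM DTT. DiFMUP then added for 30 min at room temperature and fluorescence read. IC50 from four-parameter logistic fit of % inhibition.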

Assay [2] concerns ERK phosphorylation in KYSE-520 cells. The assay can be described thus: Phospho-ERK cellular assay (Advanced phospho-ERK1/2 (Thr202/Tyr204) TR-FRET kit). It counts as cell-based. The settings on record: KYSE-520 cells, 2 h at 37° C., TR-FRET, read-out: pERK IC50. Summed up: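 IC50 values are inflection points of four-parameter logistic fits of percent activity against compound dilution. Compound exposure lasted 2 h at 37° C in KYSE-520 cells. Lysates were probed overnight with Eu-cryptate/d2 antibodies to ERK1/2 phosphorylated at Thr202/Tyr204, so reduced TR-FRET indicates SHP2 inhibition.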

Broadly, the IC50 is the point on the concentration scale where inhibition reaches its midpoint. Regarding `Cc1nccc(Sc2cnc3nc(N4CCC5(CC4)Cc4ccccc4[C@H]5N)[nH]c3n2)c1Cl` [Example 195, (S)-1′-(6-((3-chloro-2-methylpyridin-4-yl)thio)-1H-imidazo[4,5-b]pyrazin-2-yl)-1,3-dihydrospiro[indene-2,4′-piperidin]-1-amine], the IC50 in assay [1] is below 500 nM; in assay [2] (Homo sapiens, KYSE-520, 2 h) it was below 1000 nM.
Turning to `N[C@@H]1c2cc(F)ccc2CC12CCN(c1nc3ncc(Sc4cccc5c4OCCN5)nc3[nH]1)CC2` [Example 184, (S)-1′-(6-((3,4-dihydro-2H-benzo[b][1,4]oxazin-8-yl)thio)-1H-imidazo[4,5-b]pyrazin-2-yl)-6-fluoro-1,3-dihydrospiro[indene-2,4′-piperidin]-1-amine], the IC50 in assay [1] is below 500 nM; in assay [2] (Homo sapiens, KYSE-520, 2 h), below 1000 nM.
For `CCNc1nccc(Sc2cnc3[nH]c(N4CCC5(CC4)Cc4ccccc4[C@H]5N)nc3n2)c1Cl` [Example 246, (S)-1′-(5-((3-chloro-2-(ethylamino)pyridin-4-yl)thio)-1H-imidazo[4,5-b]pyrazin-2-yl)-1,3-dihydrospiro[indene-2,4′-piperidin]-1-amine], the IC50 was below 500 nM in assay [1] and above 5000 nM in assay [2] (Homo sapiens, KYSE-520, 2 h).
On to `N[C@@H]1CCCC12CCN(c1nc3ncc(Sc4cccnc4C(F)(F)F)nc3[nH]1)CC2` [Example 2, (R)-8-(6-((2-(trifluoromethyl)pyridin-3-yl)thio)-1H-imidazo[4,5-b]pyrazin-2-yl)-8-azaspiro[4.5]decan-1-amine], for which the IC50 was below 500 nM in assay [1] and 1000 to 5000 nM in assay [2] (Homo sapiens, KYSE-520, 2 h).
As for `N[C@@H]1c2ccccc2CC12CCN(c1nc3ncc(Sc4ccnc(N5CCOCC5)c4Cl)nc3[nH]1)CC2` [Example 180, (S)-1′-(5-((3-chloro-2-morpholinopyridin-4-yl)thio)-1H-imidazo[4,5-b]pyrazin-2-yl)-1,3-dihydrospiro[indene-2,4′-piperidin]-1-amine], the IC50 in assay [1] was below 500 nM; in assay [2] (Homo sapiens, KYSE-520, 2 h), below 1000 nM.
For `N[C@@H]1c2cccnc2CC12CCN(c1nc3nc(Sc4ccnc(Cl)c4C(F)(F)F)cnc3[nH]1)CC2` [Example 262, (S)-1′-(5-((2-chloro-3-(trifluoromethyl)pyridin-4-yl)thio)-1H-imidazo[4,5-b]pyrazin-2-yl)-5,7-dihydrospiro[cyclopenta[b]pyridine-6,4′-piperidin]-5-amine] the same measures were below 500 nM and below 1000 nM.
In the case of `CNc1nccc(Sc2cnc3[nH]c(N4CCC5(CC4)Cc4ccccc4[C@H]5N)nc3n2)c1C#N` [Example 201, (S)-4-((2-(1-amino-1,3-dihydrospiro[indene-2,4′-piperidin]-1′-yl)-1H-imidazo[4,5-b]pyrazin-5-yl)thio)-2-(methylamino)nicotinonitrile], the IC50 in assay [1] was below 500 nM; in assay [2] (Homo sapiens, KYSE-520, 2 h), below 1000 nM.
On to `CNc1nccc(Sc2cnc3[nH]c(N4CCC5(CC4)Cc4ncccc4[C@H]5N)nc3n2)c1Cl` [Example 146, (S)-1′-(5-((3-chloro-2-(methylamino)pyridin-4-yl)thio)-1H-imidazo[4,5-b]pyrazin-2-yl)-5,7-dihydrospiro[cyclopenta[b]pyridine-6,4′-piperidin]-5-amine], for which the half-maximal inhibitory concentration (IC50) is below 500 nM in assay [1] and below 1000 nM in assay [2] (Homo sapiens, KYSE-520, 2 h).
`N[C@@H]1c2ccccc2CC12CCN(c1nc3nc(Sc4ccc[n+]([O-])c4C(F)(F)F)cnc3[nH]1)CC2` [Example 141, (S)-3-((2-(1-amino-1,3-dihydrospiro[indene-2,4′-piperidin]-1′-yl)-1H-imidazo[4,5-b]pyrazin-5-yl)thio)-2-(trifluoromethyl)pyridine 1-oxide]: the IC50 is below 500 nM in assay [1] and below 1000 nM in assay [2] (Homo sapiens, KYSE-520, 2 h).
For `CC1(N)CCN(c2nc3nc(Sc4ccccc4S(F)(F)(F)(F)F)cnc3[nH]2)CC1` [Example 74, 4-methyl-1-(5-((2-(pentafluoro-l6-sulfaneyl)phenyl)thio)-1H-imidazo[4,5-b]pyrazin-2-yl)piperidin-4-amine] the same measures were below 500 nM and 1000 to 5000 nM.
Turning to `Cc1ccnc2c(Sc3cnc4[nH]c(N5CCC6(CC5)Cc5ccccc5[C@H]6N)nc4n3)ccnc12` [Example 254, (S)-1′-(5-((8-methyl-1,5-naphthyridin-4-yl)thio)-1H-imidazo[4,5-b]pyrazin-2-yl)-1,3-dihydrospiro[indene-2,4′-piperidin]-1-amine], the IC50 was below 500 nM in assay [1] and below 1000 nM in assay [2] (Homo sapiens, KYSE-520, 2 h).
`N[C@@H]1c2ccccc2CC12CCN(c1nc3nc(Sc4cccc5[nH]c(=O)cnc45)cnc3[nH]1)CC2` [Example 216, (S)-5-((2-(1-amino-1,3-dihydrospiro[indene-2,4′-piperidin]-1′-yl)-1H-imidazo[4,5-b]pyrazin-5-yl)thio)quinoxalin-2(1H)-one]: the IC50 in assay [1] was below 500 nM; in assay [2] (Homo sapiens, KYSE-520, 2 h) it was below 1000 nM.
For `CNc1nccc(-c2cnc3[nH]c(N4CCC5(CC4)Cc4ccccc4[C@H]5N)nc3n2)c1Cl` [Example 140, (S)-1′-(5-(3-chloro-2-(methylamino)pyridin-4-yl)-1H-imidazo[4,5-b]pyrazin-2-yl)-1,3-dihydrospiro[indene-2,4′-piperidin]-1-amine] the same measures were 500 to 3000 nM and above 5000 nM.
Consider `N#Cc1ncccc1Sc1cnc2[nH]c(N3CCC4(CC3)Cc3ccccc3[C@H]4N)nc2n1` [Example 217, (S)-3-((2-(1-amino-1,3-dihydrospiro[indene-2,4′-piperidin]-1′-yl)-1H-imidazo[4,5-b]pyrazin-5-yl)thio)picolinonitrile], for which the IC50 in assay [1] is below 500 nM; in assay [2] (Homo sapiens, KYSE-520, 2 h), below 1000 nM.
As for `Nc1nccc(Sc2cnc3[nH]c(N4CCC5(CC4)Cc4ccc(CF)cc4[C@H]5N)nc3n2)c1Cl` [Example 245, (S)-1′-(5-((2-amino-3-chloropyridin-4-yl)thio)-1H-imidazo[4,5-b]pyrazin-2-yl)-6-(fluoromethyl)-1,3-dihydrospiro[indene-2,4′-piperidin]-1-amine], the IC50 in assay [1] was below 500 nM; in assay [2] (Homo sapiens, KYSE-520, 2 h), below 1000 nM.
`CNc1nccc(Sc2cnc3[nH]c(N4CCC5(CC4)Cc4ccccc4[C@H]5N[S@+]([O-])C(C)(C)C)nc3n2)c1Cl` [Example 209, (R)-N-((S)-1′-(5-((3-chloro-2-(methylamino)pyridin-4-yl)thio)-1H-imidazo[4,5-b]pyrazin-2-yl)-1,3-dihydrospiro[indene-2,4′-piperidin]-1-yl)-2-methylpropane-2-sulfinamide]: the IC50 in assay [1] is below 500 nM; in assay [2] (Homo sapiens, KYSE-520, 2 h) it was 1000 to 5000 nM; in assay [2], below 1000 nM.
Consider `CC1(N)CCN(c2nc3ncc(Sc4cccnc4C(F)(F)F)nc3[nH]2)CC1` [Example 1, 4-methyl-1-(6-((2-(trifluoromethyl)pyridin-3-yl)thio)-1H-imidazo[4,5-b]pyrazin-2-yl)piperidin-4-amine], for which the IC50 in assay [1] is below 500 nM; in assay [2] (Homo sapiens, KYSE-520, 2 h), 1000 to 5000 nM.
For `COc1nccc(Sc2cnc3[nH]c(N4CCC5(CC4)Cc4ccc(Br)cc4[C@H]5N)nc3n2)c1Cl` [Example 228, (S)-6-bromo-1′-(5-((3-chloro-2-methoxypyridin-4-yl)thio)-1H-imidazo[4,5-b]pyrazin-2-yl)-1,3-dihydrospiro[indene-2,4′-piperidin]-1-amine] the same measures were below 500 nM and above 5000 nM.
For `N[C@@H]1c2ccccc2CC12CCN(c1nc3nc(Sc4ccn[nH]c4=O)cnc3[nH]1)CC2` [Example 234, (S)-4-((2-(1-amino-1,3-dihydrospiro[indene-2,4′-piperidin]-1′-yl)-1H-imidazo[4,5-b]pyrazin-5-yl)thio)pyridazin-3(2H)-one] the same measures were below 500 nM and below 1000 nM.
For `N[C@@H]1c2ccccc2CC12CCN(c1nc3nc(Sc4ccc[nH]c4=O)cnc3[nH]1)CC2` [Example 238, (S)-3-((2-(1-amino-1,3-dihydrospiro[indene-2,4′-piperidin]-1′-yl)-1H-imidazo[4,5-b]pyrazin-5-yl)thio)pyridin-2(1H)-one], the IC50 in assay [1] was below 500 nM; in assay [2] (Homo sapiens, KYSE-520, 2 h), above 5000 nM.
Consider `N[C@@H]1c2ccccc2CC12CCN(c1nc3nc(Sc4cccc5c4OC(F)(F)O5)cnc3[nH]1)CC2` [Example 136, (S)-1′-(5-((2,2-difluorobenzo[d][1,3]dioxol-4-yl)thio)-1H-imidazo[4,5-b]pyrazin-2-yl)-1,3-dihydrospiro[indene-2,4′-piperidin]-1-amine], for which the IC50 was below 500 nM in assay [1] and below 1000 nM in assay [2] (Homo sapiens, KYSE-520, 2 h).
As for `N[C@@H]1c2ccccc2CC12CCN(c1nc3nc(Sc4cccnc4N4CCCC4)cnc3[nH]1)CC2` [Example 225, (S)-1′-(5-((2-(pyrrolidin-1-yl)pyridin-3-yl)thio)-1H-imidazo[4,5-b]pyrazin-2-yl)-1,3-dihydrospiro[indene-2,4′-piperidin]-1-amine], the IC50 in assay [1] was below 500 nM; in assay [2] (Homo sapiens, KYSE-520, 2 h), above 5000 nM.
